The source of these data is PubChem BioAssay (NCI).

The structures appear in SMILES notation.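 Growth conditions: 96-well plates. Treatment: test compound, 48 hours, 5 concentrations. Analysis: linear interpolation between bracketing concentrations; unreached endpoints set to highest concentration. Abbreviation: GI50, concentration required for 50% inhibition of growth. TGI: concentration producing complete growth inhibition.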

Some test systems named below: CAKI-1 renal; CCRF-CEM leukemia; EKVX NSCLC; HT29 colon; SN12C renal; SW-620 colon; UO-31 renal; LOX IMVI melanoma; RPMI-8226 leukemia; U251 CNS.
Common to all, as to test: NCI tumour cell line growth inhibition, 48 h

As for `COc1cc(C2CC(c3cccc(Nc4ccncc4)c3)=NN2c2ccc(Cl)cc2)cc(OC)c1OC` (configuration not stated), the GI50 with CAKI-1 renal was 1410 nM; in the test with CCRF-CEM leukemia it was 2390 nM; with EKVX NSCLC, 1460 nM; with HT29 colon, 1870 nM; with SN12C renal it was 1540 nM; in the test on SW-620 colon, 1680 nM. Further, the GI50 in the test with UO-31 renal is 1150 nM. In addition, the TGI stood at 2.76 µM with CAKI-1 renal; 6.71 µM with CCRF-CEM leukemia; 2.88 µM with EKVX NSCLC; 4.82 µM in the test with HT29 colon; 2.95 µM with SN12C renal; 3.19 µM with SW-620 colon. In the test with UO-31 renal, this compound yielded a TGI of 2.37 µM.
Turning to `COc1ccc(/C(Cl)=C(\C=O)c2ccc(OC)cc2)cc1`, the TGI in the test with CAKI-1 renal, in the test with CCRF-CEM leukemia, in the test with EKVX NSCLC, in the test on HT29 colon, with LOX IMVI melanoma and in the test on RPMI-8226 leukemia was above 100 µM throughout. In addition, the TGI in the test on SN12C renal, with SW-620 colon, with U251 CNS and with UO-31 renal was above 100 µM throughout.
Consider `Nc1ccccc1N=Cc1cc2cc([N+](=O)[O-])ccc2s1`, for which the TGI in the test with CAKI-1 renal was above 100 µM; with CCRF-CEM leukemia it was 22.8 µM; with EKVX NSCLC, 45.1 µM; in the test on HT29 colon, above 100 µM; with LOX IMVI melanoma, 97.9 µM; in the test on RPMI-8226 leukemia it was 46.8 µM. Moreover, the TGI in the test on SN12C renal was above 100 µM; in the test with SW-620 colon, above 100 µM; in the test on U251 CNS, 28.2 µM; in the test on UO-31 renal it was 48.8 µM.
For `COc1cc(/C=C/C(=O)Oc2ccc(NC(C)=O)cc2)ccc1C(=O)O/C=C/c1ccccc1`, the TGI in the test with CCRF-CEM leukemia, in the test on EKVX NSCLC, with HT29 colon, with LOX IMVI melanoma, with RPMI-8226 leukemia and in the test with SN12C renal was above 100 µM throughout. The TGI in the test with SW-620 colon, in the test with U251 CNS and in the test on UO-31 renal was above 100 µM in each case.
For `COc1ccc(-c2nc3ncccn3c2-c2ccc(SC)cc2)cc1`, the TGI with CAKI-1 renal is 4.96 µM; in the test with CCRF-CEM leukemia, above 100 µM; with HT29 colon, 28.1 µM; in the test on LOX IMVI melanoma it was 80.4 µM; with RPMI-8226 leukemia it was 29.2 µM; in the test on SN12C renal it was above 100 µM. Further, the TGI was above 100 µM in the test with SW-620 colon, 29 µM with U251 CNS and 66.6 µM in the test with UO-31 renal.
For the compound `CSc1ccsc1-c1sc(-c2cc(SC)c(-c3sc(-c4cc(SC)c(-c5sccc5SC)s4)cc3SC)s2)cc1SC`, the TGI was 34 µM in the test on CAKI-1 renal; 27 µM in the test with CCRF-CEM leukemia; above 100 µM in the test with EKVX NSCLC; above 100 µM in the test on HT29 colon; above 100 µM with LOX IMVI melanoma; above 100 µM in the test with RPMI-8226 leukemia. Moreover, the TGI with SN12C renal is above 100 µM; in the test on SW-620 colon it was 69.7 µM; with U251 CNS, above 100 µM.
As for `CCc1nc(N)nc(N)c1-c1ccc([N+](C)(C)C)cc1`, the TGI in the test on CAKI-1 renal, in the test with CCRF-CEM leukemia, with EKVX NSCLC, in the test on HT29 colon, in the test on LOX IMVI melanoma and with RPMI-8226 leukemia was above 100 µM each time. For the same compound, the TGI with SN12C renal, with SW-620 colon, in the test with U251 CNS and with UO-31 renal was above 100 µM throughout.
Turning to `COc1ccc2c(C(=O)c3cn(CCN4CCOCC4)c4ccccc34)cccc2c1`, the TGI with CAKI-1 renal is above 100 µM; in the test with CCRF-CEM leukemia, 85.5 µM; with EKVX NSCLC, above 100 µM; with HT29 colon, above 100 µM; in the test on LOX IMVI melanoma it was above 100 µM; in the test with RPMI-8226 leukemia, above 100 µM. Moreover, the TGI with SN12C renal, with SW-620 colon, with U251 CNS and in the test on UO-31 renal was above 100 µM in each case.
In the case of `CCOC(=O)c1c2c(n(Cc3ccccc3)c1C)C(=O)C(=O)c1ccccc1-2`, the TGI in the test on CAKI-1 renal was found to be 0.984 µM; in the test on EKVX NSCLC it was 1.74 µM; in the test with LOX IMVI melanoma, 0.482 µM; with RPMI-8226 leukemia, 0.83 µM; in the test with SN12C renal, 0.333 µM; with SW-620 colon it was 1.15 µM. Besides, the TGI was 2.03 µM with U251 CNS and above 100 µM in the test with UO-31 renal.
Turning to `CCSC1=N/C(=C\c2ccc(N(C)C)cc2)C(Cl)=N1`, the TGI in the test with CAKI-1 renal, with CCRF-CEM leukemia, in the test with EKVX NSCLC, in the test with HT29 colon, in the test with RPMI-8226 leukemia and with SN12C renal was above 100 µM throughout. For the same compound, the TGI with SW-620 colon, in the test on U251 CNS and with UO-31 renal was above 100 µM each time.
With `FC(F)(F)c1ccc2c(c1)nc(-c1ccc(Cl)cc1)n2CC1CCCN2CCCCC12` (configuration not stated), the TGI with CAKI-1 renal was determined as 33.3 µM; in the test with CCRF-CEM leukemia, 36 µM; in the test with EKVX NSCLC, 23.4 µM; in the test on HT29 colon it was 19 µM; in the test on LOX IMVI melanoma, 29.8 µM; in the test on SN12C renal, 26 µM. Further, the TGI came to 38.1 µM in the test with SW-620 colon, 27.3 µM in the test on U251 CNS and 22.9 µM with UO-31 renal.
For the compound `CCC(=O)O[C@H]1CC[C@H]2[C@@H]3CCC4=C/C(=N/OC(=O)c5cccc6cc7ccccc7nc56)CC[C@]4(C)[C@H]3CC[C@]12C`, the TGI in the test on CAKI-1 renal, in the test on CCRF-CEM leukemia, in the test on EKVX NSCLC, in the test with HT29 colon, in the test on LOX IMVI melanoma and in the test with RPMI-8226 leukemia was above 100 µM in each case. Besides, the TGI in the test on SN12C renal, in the test with SW-620 colon and with U251 CNS was above 100 µM each time.
Regarding `N=C1C(=N)c2ccccc2-c2ccccc21.N=C1C(=N)c2ccccc2-c2ccccc21.N=C1C(=N)c2ccccc2-c2ccccc21.[Cl-].[Ru+2]`, the TGI was 3.41 µM in the test on EKVX NSCLC; above 31.6 µM in the test with HT29 colon; 7.94 µM with LOX IMVI melanoma; 5.4 µM with RPMI-8226 leukemia; 2.94 µM with SN12C renal; 3.74 µM in the test with SW-620 colon. Besides, the results for the TGI with U251 CNS and in the test with UO-31 renal were 3.08 µM and 4.71 µM, respectively.
Take `COC(C)(C)OCCN1CCN(CCN2C3=C(C=C(C(C)=O)C3)Sc3ccccc32)CC1`: the TGI was 48.2 µM in the test on CAKI-1 renal; 32.4 µM in the test with CCRF-CEM leukemia; above 100 µM in the test on EKVX NSCLC; 33.2 µM in the test on HT29 colon; 42.2 µM with LOX IMVI melanoma; 32.8 µM in the test with RPMI-8226 leukemia. Also, the TGI in the test on SN12C renal turned out to be 69.8 µM; in the test on SW-620 colon, 37.2 µM; in the test on U251 CNS, 35.2 µM; in the test with UO-31 renal, 43.1 µM.
In the case of `Cc1cc2c(cc1C(=O)c1ccc(N)cc1)OCO2`, the TGI in the test on CAKI-1 renal was 66.4 µM; in the test with CCRF-CEM leukemia, above 100 µM; with EKVX NSCLC, above 100 µM; in the test with HT29 colon it was 61.3 µM; in the test on RPMI-8226 leukemia, above 100 µM; in the test with SN12C renal it was above 100 µM. Moreover, the TGI with SW-620 colon, in the test with U251 CNS and in the test on UO-31 renal was above 100 µM in each case.
In the case of `CC(C)(C)[Si](C)(C)Oc1ccc(C2CNC(=O)C23CCC(=O)N3Cc2ccccc2)cc1` (configuration not stated), the TGI with CAKI-1 renal is 45 µM; with CCRF-CEM leukemia, above 100 µM; in the test on EKVX NSCLC, 22.4 µM; in the test with HT29 colon, 24.8 µM; with LOX IMVI melanoma, 41.2 µM; in the test on RPMI-8226 leukemia, 18.8 µM. Further, the TGI in the test with SN12C renal came to 35.9 µM; in the test with SW-620 colon it was 31.1 µM; with U251 CNS it was 36.2 µM; in the test on UO-31 renal it was 32.9 µM.
For `Oc1cn(-c2ccc(Cl)cc2)nc1-c1n[nH]c(=S)n1-c1ccccc1`, the TGI with CAKI-1 renal was 35.3 µM; in the test on EKVX NSCLC it was 82.1 µM; with HT29 colon, 44 µM; in the test with RPMI-8226 leukemia, above 100 µM; with SN12C renal it was above 100 µM; in the test with SW-620 colon, 20.4 µM. Also, the figures for the TGI in the test with U251 CNS and with UO-31 renal were 30.4 µM and 62.7 µM, respectively.
`Cc1c2cccc-2c(OCCO)cc2c3ccccc3n(C)c12`: the TGI was 26.6 µM with CAKI-1 renal; 7.53 µM with CCRF-CEM leukemia; 8.69 µM in the test with EKVX NSCLC; 18.3 µM in the test on HT29 colon; 8.15 µM in the test with LOX IMVI melanoma; 14.4 µM in the test on SN12C renal. Besides, the TGI was found to be 67.3 µM in the test with SW-620 colon, 5.84 µM in the test with U251 CNS and 10.6 µM in the test with UO-31 renal.
Take `COc1ccc2c(c1)CCCN2CCCCCCCCCCN(CCC(C)C)CCC(C)C`: the TGI with CAKI-1 renal amounted to 28.9 µM; in the test on CCRF-CEM leukemia it was 32.9 µM; with EKVX NSCLC, 20 µM; with HT29 colon, 18 µM; in the test on LOX IMVI melanoma, 29.1 µM; with RPMI-8226 leukemia it was 6.18 µM. The values for the TGI in the test on SW-620 colon, in the test with U251 CNS and in the test with UO-31 renal were 26.2 µM, 26.6 µM and 10.2 µM, respectively.
On to `Nc1n[nH]c(=O)c2c1c(I)cn2C1OC(CO)C(O)C1O` (configuration not stated), for which the TGI with CCRF-CEM leukemia is 4.12 µM; in the test with EKVX NSCLC it was 7.85 µM; in the test on HT29 colon it was 67.8 µM; in the test with LOX IMVI melanoma, 10.6 µM; in the test with RPMI-8226 leukemia, 4.53 µM; in the test with SN12C renal, 66.1 µM. The values for the TGI with SW-620 colon, in the test on U251 CNS and with UO-31 renal were above 100 µM, 4.19 µM and 5.86 µM, respectively.
In the case of `CN(C)CCNC(=O)c1cccc2ccc(-c3ccc(F)cc3)nc12`, the TGI in the test on CAKI-1 renal was 15.3 µM; with CCRF-CEM leukemia, 15.8 µM; with HT29 colon it was 17 µM; in the test on LOX IMVI melanoma it was 9.88 µM; in the test on RPMI-8226 leukemia, 13.5 µM; in the test with SN12C renal, 25.2 µM. Also, the TGI with SW-620 colon is 21 µM; in the test on U251 CNS, 22.3 µM; in the test with UO-31 renal, 11.4 µM.
